23 compounds from US7101967B2, “Transport vectors” (priority 1998, dated 2006) can be followed below.

Square brackets hold non-standard residues; d marks the D form. Peptide text beside a SMILES is read from it. * marks the point of attachment. X3 = COc1cc([C@@H]2c3cc4c(cc3[C@@H](Nc3ccc(NC(=O)CCN5C(=O)CC(*)C5=O)cc3)[C@H]3COC(=O)[C@H]23)OCO4)cc(O)c1O; Biotin = O=C1N[C@H]2[C@H](CS[C@H]2CCCCC(=O)*)N1; βAla = NCCC(=O)O

Test system in the first data set: not listed separately
In words: Maximum tolerated dose by iv administration in mice. To be noted: mouse, in vivo.
One may read the MTD as the highest dose tested that stayed within the study's limit of toxicity. As to `CC[C@H](C)[C@H](NC(=O)[C@H](CCCCN)NC(=O)[C@@H](NC(=O)[C@H](CCC(N)=O)NC(=O)[C@H](CCCNC(=N)N)NC(=O)[C@@H](N)CSC1CC(=O)N(CCC(=O)O[C@H]2c3cc4c(cc3[C@@H](c3cc(OC)c(OC)c(OC)c3)[C@H]3C(=O)OC[C@@H]32)OCO4)C1=O)[C@@H](C)CC)C(=O)N[C@@H](Cc1c[nH]c2ccccc12)C(=O)N[C@@H](Cc1ccccc1)C(=O)N[C@@H](CCC(N)=O)C(=O)N[C@@H](CC(N)=O)C(=O)N[C@@H](CCCNC(=N)N)C(=O)N[C@@H](CCCNC(=N)N)C(=O)N[C@@H](CCSC)C(=O)N[C@@H](CCCCN)C(=O)N[C@@H](Cc1c[nH]c2ccccc12)C(=O)N[C@@H](CCCCN)C(=O)N[C@@H](CCCCN)C(=O)NCC(=O)N[C@@H](CS)C(=O)NCC(N)=O` (some centres unmarked) [podophyllotoxin, 16-mer], the maximum tolerated dose (MTD) is roughly 40 mg/kg.

Another data set deals with live cells. In words: Visualisation of cell internalisation (biotin-avidin and direct fluorescein probe). The following applies: FIG. 4, visualisation in cells. The data set is classed as cell-based. The protocol: This assay permitted the study and measurement of cell internalisation without the possibility of observing artefacts emanating from the cell manipulations necessary with the biotinylated peptides. […] (squares when t=10 mins, diamonds when t=60 mins). […] Nuceolar accumulation may be due to non-specific binding of the positively charged peptide to DNA.
As to “Biotinyl-βAla-Arg-Gln-Ile-Lys-Ile-Trp-Phe-Gln-Asn-Arg-Arg-Met-Lys-Trp-Lys-Lys-NH2 (ARQIKIWFQNRRMKWKK; N-terminal biotin, beta-residue; C-terminal amide; MOD_RES (1) bAla) [Peptide 1]”, the “subcellular localisation after internalisation” value is “localises predominantly to the cell nucleus and accumulates in the nucleoli, with lesser concentration in the cytosol”.

The test system of another data set is purified recombinant human topoisomerase II. As to the kind of experiment: Topoisomerase II inhibition assay (cleavage and relaxation of plasmid DNA). It is filed as biochemical. Also on record: key: I denotes inhibition of relaxation of supercoiled plasmid by topoisomerase II; C denotes accumulation of topoisomerase II reaction intermediate. The following applies: test compound at 1 mM, 100 μM, or 10 μM final concentration; cleavage and relaxation assays. How it is done:
Topoisomerase II assay—Plasmid DNA (0.3 μg) was incubated at 37° C. with 4 units of purified recombinant human topoisomerase II in cleavage buffer (30 mM Tris.HCl, pH 7.6, 60 mM NaCl, 3 mM ATP, 15 mM mercaptoethanol, 8 mM MgCl2) with or without the addition of test compound (at 1 mM, 100 μM, or 10 μM final concentration). Reactions were stopped by the immediate addition of SDS (1% w/v final). Samples were treated with proteinase K (30 min at 37° C.) and extracted twice with an equal volume of 42:1 CHCl3/i-amyl alcohol. After adding loading dye samples were loaded to a 4×TAE, 1% agarose gel containing […] ethidium bromide and electrophoresed for 16-24 h. Topoisomerase II inhibition was judged by the production of linear plasmid DNA, representing trapped cleavage intermediate, and by the ratio of substrate (spercoiled DNA) to product (relaxed DNA). A relaxation assay was performed identically, except that the reaction buffer was optimised for the detection of catalysis rather than cleavage i.e. only 2 units of enzyme were used per sample. The reaction buffer was 50 mM Tris.HCl, pH 8, 120 mM KCl, 0.5 mM ATP, 0.5 mM dithiothreitol, 10 mM MgCl2. Topoisomerase II inhibition was judged by the ratio of substrate (supercoiled DNA) to product (relaxed DNA).
Take `COc1cc(C2c3cc4c(cc3C(Nc3ccc(N)cc3)C3COC(=O)C23)OCO4)cc(OC)c1O` (centres unmarked) [4′-Demethyl-4-(4″-aminoanilino)epipodophyllotoxin, reference compound]: the “Activity observed (topoisomerase II)” value was “I”.
Still for that read-out and setting: next, `COc1cc([C@@H]2c3cc4c(cc3[C@@H](Nc3ccc(NC(=O)CCN5C(=O)CC(SC[C@H](N)C(=O)NCCC(=O)N[C@@H](CCCNC(=N)N)C(=O)N[C@@H](CCCNC(=N)N)C(=O)N[C@@H](CCSC)C(=O)N[C@@H](CCCCN)C(=O)N[C@@H](Cc6c[nH]c7ccccc67)C(=O)N[C@@H](CCCCN)C(=O)N[C@@H](CCCCN)C(N)=O)C5=O)cc3)[C@H]3COC(=O)[C@H]23)OCO4)cc(O)c1O` (stereo partly drawn) [4′-Demethyl-4-[4″-aminoanilino-(succinimidopropionoyl)-(H-Cys-βAla-Arg-Arg-Met-Lys-Trp-Lys-Lys-NH2)]epipodophyllotoxin] (H-C(X3)[βAla]RRMKWKK-NH2): “I”.

Another data set has as its system HaCaT cells. In words: Peptide internalisation assay (biotinylated peptides, alkaline phosphatase-streptavidin detection). The following applies: FIG. 2, one peptide concentration, same pattern regardless of concentration. It is filed as cell-based, human. How it is done:
HaCaT cells (immortalised ‘normal’ human […] cell line) were seeded into 96-well plates at 50,000 cells per well in medium (DMEM) with 10% foetal calf serum and antibiotics. After an overnight incubation, peptides were prepared as dilution series in cell medium and were added to the cells. At the end of the incubation period (usually 10 and 60 min), the cells were rinsed three times with PBS and fixed for 20 min at −20° C. in EtOH/AcOH (95:5). After the fixation, the cells were made permeable by treatment for 10 min with PBS containing 3% Tween-20. Endogenous alkaline phosphatase activity was neutralised by incubation at 65° C. for 60 min. Cells were incubated for 30 min at room temperature with alkaline phosphatase-streptavidin (Pierce Chemical Co., Rockford, Ill., USA) in 0.1% BSA in PBS and washed extensively with PBS. Freshly prepared substrate solution (1 mg/mL p-nitrophenyl phosphate disodium (Pierce Chemical Co.) in 10 mM diethanolamine (pH 9.5) containing 0.5 mM MgCl, was added to each well and incubated until sufficient colour had developed (approximately 30 min.). The enzymatic reaction was stopped by adding 50 μL 2 M aq NaOH to each well. Alkaline phosphatase activity was measured spectrophotometrically at 405 nm.
With “Biotinyl-βAla-Arg-Met-Lys-Trp-Lys-Lys-NH2 (Biotin-[βAla]RMKWKK-NH2; SMILES CSCC[C@H](NC(=O)[C@H](CCCNC(=N)N)NC(=O)CCNC(=O)CCCC[C@@H]1SC[C@@H]2NC(=O)N[C@@H]21)C(=O)N[C@@H](CCCCN)C(=O)N[C@@H](Cc1c[nH]c2ccccc12)C(=O)N[C@@H](CCCCN)C(=O)N[C@@H](CCCCN)C(N)=O) [Peptide 20]”, the “degree of internalisation / membrane translocation relative to control peptide 1” value was “severe drop”.
On the same count and under the same terms, for “Biotinyl-βAla-Ile-Trp-Phe-Gln-Asn-Arg-Arg-Met-Lys-Trp-Lys-Lys-NH2 (Biotin-[βAla]IWFQNRRMKWKK-NH2; SMILES CC[C@H](C)[C@H](NC(=O)CCNC(=O)CCCC[C@@H]1SC[C@@H]2NC(=O)N[C@@H]21)C(=O)N[C@@H](Cc1c[nH]c2ccccc12)C(=O)N[C@@H](Cc1ccccc1)C(=O)N[C@@H](CCC(N)=O)C(=O)N[C@@H](CC(N)=O)C(=O)N[C@@H](CCCNC(=N)N)C(=O)N[C@@H](CCCNC(=N)N)C(=O)N[C@@H](CCSC)C(=O)N[C@@H](CCCCN)C(=O)N[C@@H](Cc1c[nH]c2ccccc12)C(=O)N[C@@H](CCCCN)C(=O)N[C@@H](CCCCN)C(N)=O) [Peptide 14]” the value was “only about half of the original signal was left”; for “Biotinyl-βAla-Trp-Phe-Gln-Asn-Arg-Arg-Met-Lys-Trp-Lys-Lys-NH2 (Biotin-[βAla]WFQNRRMKWKK-NH2; SMILES CSCC[C@H](NC(=O)[C@H](CCCNC(=N)N)NC(=O)[C@H](CCCNC(=N)N)NC(=O)[C@H](CC(N)=O)NC(=O)[C@H](CCC(N)=O)NC(=O)[C@H](Cc1ccccc1)NC(=O)[C@H](Cc1c[nH]c2ccccc12)NC(=O)CCNC(=O)CCCC[C@@H]1SC[C@@H]2NC(=O)N[C@@H]21)C(=O)N[C@@H](CCCCN)C(=O)N[C@@H](Cc1c[nH]c2ccccc12)C(=O)N[C@@H](CCCCN)C(=O)N[C@@H](CCCCN)C(N)=O) [Peptide 15]”, “only about half of the original signal was left”.

Staying with this data set, now noted: assay of section 1.3.
Turning to KKWKORR, the “internalised into cells / active in the cell internalisation assay (qualitative)” value (from here on “internalised into cells / active”) is “internalised into cells”.
Still for that read-out and setting: for KRMKWKK the value was “internalised into cells”; for NRRMKWKK, “internalised into cells”; for QNRRMKWKK, “internalised into cells”.
Same read-out and setting: next, RKMKWKK: “internalised into cells”.
On the same count and under the same terms, for RORKWKK the value was “internalised into cells”; for RREKWKK, “internalised into cells”; for RRMKKWK, “internalised into cells”.
As for RRMKQKK, the “internalised into cells / active” value is reported as “internalised into cells”.
In the case of RRMKWFK, the “internalised into cells / active” value was “internalised into cells”.
Take RRMKWKK: the “internalised into cells / active” value is “internalised into cells”.
For RRMWKKK, the “internalised into cells / active” value is “internalised into cells”.
Turning to RROKKWK, the “internalised into cells / active” value was “internalised into cells”.
With RROKWKK [O = norleucine], the “internalised into cells / active” value was “internalised into cells”.
As for RROWKKK, the “internalised into cells / active” value is “internalised into cells”.
With RRQKWKK, the “internalised into cells / active” value is recorded as “internalised into cells”.
